The source of these data is patent EP0081321A1, “2-Aminophenol derivatives” (ONO PHARMACEUTICAL CO., LTD., priority 1981, dated 1983).

Where a name gives a salt, the structure may show the parent alone.

The first data set has as its system mice. As to the kind of experiment: acute toxicity by intravenous injection. Format: in vivo. The note with it: intravenous injection to tail vein, doses of 30 mg/Kg. The method, then:
On the other hand, all extent of the compounds of the present invention were confirmed that their acute toxicities were more than 30 mg/Kg by intravenous injection. Therefore, the compounds of the present invention may be considered to be sufficiently safe and suitable for medical use.
For `CCOC(=O)/C=C/c1cc(Cl)cc(N)c1O.Cl` [Example 1(a), 2-Amino-4-chloro-6-[2-ethoxycarbonyl-(1E)-vinyl]phenol hydrochloride], the “dead cases in test of acute toxicity” value is on record as “no dead case in 21 cases”.
As for `CCOC(=O)/C=C/C=C/c1cc(Cl)cc(N)c1O` [Example 1(b), 2-Amino-4-chloro-6-[4-ethoxycarbonyl-(lE, 3E)-butadienyl]phenol hydrochloride], the “dead cases in test of acute toxicity” value is “no dead case in 21 cases”.
Still for that read-out and setting: then `COC(=O)/C=C/c1cc(N)c(O)c(OC)c1.Cl` [Example 1(e), 2-Amino-6-methoxy-4-[2-methoxycarbonyl-(1E)-vinyl]phenol hydrochloride], with “no dead case in 21 cases”.

The next data set has as its system cyclooxygenase. As to the kind of experiment: standard assay system using polymorphonuclear leukocytes, HHT or TXB2 production. Format: cell-based. As to conditions: polymorphonuclear leukocytes from guinea pig (whole cells), [1-14C] arachidonic acid, 37°C, 5 minutes; production of HHT or TXB2; read-out: concentrations for 50% inhibitions on cyclooxygenase. The method, then:
Therefore, it is comfirmed that the compound (a) inhibits both enzymes at the same time at a very low concentration, and that the compounds (b), (c) and (d) inhibit 5-lipoxygenase slightly specifically at a very low concentration.
The experiments for screening using polymorphonuclear leukocytes were carried out as follows: The reaction mixture (0.1 ml) containing 5 µmole of potassium phosphase at pH 7.4, 0.1 µmole of calcium chloride, polymorphonuclear leukocytes prepared from guinea pigs (4 x 10^7 cells) and test compound was preincubated for 5 minutes at 37°C. The reaction was started by the addition of [1-^14C] arachidonic acid (2.2 x 10^3 dpm, 1.8 pmole), followed by the incubation at 37°C for 5 minutes. The reaction was terminated by the addition of 0.3 ml of a mixture of ether/methanol/lM citric acid (30/4/1). The organic phase (20 µl) was applied to silica gel plate. Thin layer chromatography was performed to separate each product with solvent system of ether/petroleum ether/acetic acid (85/15/0.1).
Activities of 5-lipoxygenase and cyclooxygenase were calculated from the measurements of the productions of 5-HETE, and 12L-hydroxy-5, 8, 10-[…] acid (i.e. HHT) or thromboxane B2 (i.e. TXB2) respectively. [it has been known that HHT and TXB2 were the last products of the system concerning cyclooxygenase in the arachidonate cascade.] The concentrations for 50% inhibitions on 5-lipoxygenase and on cyclooxygenase were evaluated by using the concentrations of compounds of the present invention required 50% inhibitions on the productions of 5-HETE, and HHT or TXB2.
Take `CCOC(=O)/C=C/c1ccc(O)c(N)c1` [Example 1(d), 2-Amino-4-[2-ethoxycarbonyl-(1E)-vinyl]-phenol hydrochloride]: the IC50 turned out to be 2200 nM.
On to `Nc1cc(/C=C/C(=O)OCc2ccc(-c3ccccc3)cc2)ccc1O` [Example 1(h), 2-Amino-4-[2-[4-biphenylmethbxycarbonyl]-(1E)-vinyl]-phenol], for which the IC50 is 10000 nM.
In the case of `CCOC(=O)/C=C/c1cc(Sc2ccccc2)cc(N)c1O` [Example 1(j), 2-Amino-6-[2-ethoxycarbonyl-(lE)-vinyl]-4-phenylthiophenol hydrochloride], the IC50 came to 600 nM.
Turning to `CCOC(=O)/C=C/c1cccc(N)c1O` [Example 1, 2-Amino-6-[2-ethoxycarbonyl-(lE)-vinyl]-phenol hydrochloride], the IC50 was 1000 nM.
